≈ marks a conversion by molar mass, not a printed value. Like-named read-outs stand apart in the source and are kept apart here. Marks after values point to notes of the source that are not given here.
Experiments:
BY4741/YEplac195 = experiment: Checkerboard titration synergy, BY4741/YEplac195; type: cell-based, Saccharomyces cerevisiae; conditions: synergistic when FICI ≤0.5
Description: (§1) The combined antimicrobial activity of the test compounds with the antibacterial or antifungal control agents was performed under the same conditions used for the MIC determination and following the procedures described by Carton Herrán, Reis de Sá et al. and Zharkova et al.. For each experiment, 16 samples (4 rows × 4 columns) in a total volume of 0.5 mL were prepared in tubes using an array of combinations between the MIC value and 0 μg/mL of the compound to be tested in each row, and between the MIC value and 0 μg/mL of the reference drug in each column. In this way, a variety of mixtures with different concentrations of them alone or in combination was obtained. Briefly, 0.5 mL of a microorganism culture was added to each one of the samples, and after incubation for 24 h with shaking at the appropriate temperature (37 °C or 30 °C), the tubs were visually inspected, and the OD600 was measured. From this information, the fractional inhibitory concentration index (FICI) was calculated according to the formula FIC index = ([A]/[CMI A]) + ([B]/[CMI B]), where [A] and [B] are respective concentrations of tested polyamine and reference drug in their combination effectively inhibiting the growth of bacteria or yeast, and [MIC A] and [MIC B] are the individual MICs of the tested polyamine and reference drug when they are used alone. An interaction is considered synergistic when the FICI value is ≤0.5 [41, 42].
(§2) To confirm the data obtained in the checkerboard assay, 30 μL of a ten-fold dilution of the tubes containing concentrations of half of the MIC of each one of the compounds alone (polyamine to be tested and reference drug) and one fourth of the MIC of each one in combination were also spread in LB or SC-ura plates (according to the microorganism considered in each case) and incubated at 37 °C or 30 °C. The visualisation of these plates was performed after 24 or 48 h, respectively. All these experiments were carried out in triplicate.

S. aureus BHI = experiment: Minimal bactericidal concentration, S. aureus; type: cell-based, Staphylococcus aureus; conditions: overnight incubation, plating on LB; for MBC: Staphylococcus aureus
Description: (§3) Once the MIC was known, the samples were prepared as described in the previous section with polyamine concentrations corresponding to the MIC and half, double, and four times its value. After overnight incubation with the microorganisms, 30 μL of a ten-fold dilution of each one was spread in LB (in the case of bacterial strains) or SC-ura (for yeast strains) plates. They were incubated for 20 h at 37 °C (bacteria) or 48 h at 30 °C (yeasts), and the level of growth was determined. […] Experiments were carried out at least three times.

[1] = system: Staphylococcus aureus BHI; experiment: MIC, microdilution in culture medium, S. aureus; type: cell-based; conditions: 20 h, 37 °C, average of at least three experiments; for MIC: Staphylococcus aureus, read-out: MIC, Bacteria, S. aureus BHI
Text: (§4) The microorganisms used for the susceptibility tests were the bacteria Escherichia coli JM101 and Staphylococcus aureus BHI, and the yeast Saccharomyces cerevisiae strains BY4741 (MAT a his3Δ1 leu2Δ0 met15Δ0 ura3Δ0 (EUROSCARF)) carrying YEplac195 (from EUROSCARF) or YEPlac195-PDR5 (provided by Ayse Banu Demir, Izmir University of Economics, Turkey) plasmids.
(§5) Bacterial strains were usually maintained and grown in an LB medium (0.5% (w/v) yeast extract, 1% (w/v) bactotryptone, and 1% (w/v) NaCl) at 37 °C. For MIC (minimal inhibitory concentration) and MMC (minimal microbicidal concentration) assays, and for the determination of synergies, overnight growth was carried out in 2% (w/v) bactopeptone (BP), and then the cultures were diluted and incubated for several hours in 2% (w/v) BP for ensuring logarithmic growth. Yeast strains were grown in an SC-ura medium (0.17% (w/v) yeast nitrogen base without amino acids and ammonium sulphate, 0.2% (w/v) drop-out without uracil, 0.5% (w/v) (NH4)2SO4, and 2% (w/v) glucose) at 30 °C. Liquid cultures were incubated with shaking (200 rpm). Solid media also contained 2% (w/v) agar.
For the analysis of the antimicrobial activity, the strategies and indications of Cushnie et al. were considered. The standardised method of microdilution in a culture medium was followed to determine the MIC [55]. In bacterial strains, serial dilutions of the compounds to be tested and the control antibiotics were prepared in phosphate buffer (20 mM, pH 7.4, 0.5 mL) and were mixed with a suspension of bacterial cells in a logarithmic growth phase (in 1% BP, 0.5 mL). The final OD600 of the whole solutions were 0.004 and 0.008 for E. coli and S. aureus cultures, respectively. After 20 h of incubation at 37 °C with shaking, the MIC was determined as the lowest concentration of each compound in which no visible bacterial growth was observed.

[2] = system: Saccharomyces cerevisiae BY4741/YEplac195-PDR5; experiment: microbe, parasite or virus in culture; type: cell-based; conditions: 24 h; for MIC: Saccharomyces cerevisiae, read-out: MIC, Yeast, BY4741/ PDR5
Text: as §4, §5
(§6) The determination of the MIC for yeast strains was carried out following a similar procedure to that of the polyamines and antifungal reference agents: Serial dilutions of each one in phosphate buffer (20 mM, pH 7.4, 0.5 mL) were prepared and mixed with a suspension of yeast cells (OD600 0.04 in SC-ura 2X (VWR, Atlanta, GA, USA), 0.5 mL). […] Experiments were carried out at least three times in all cases.

[3] = system: Saccharomyces cerevisiae BY4741/YEplac195; experiment: microbe, parasite or virus in culture; type: cell-based; conditions: 24 h, 30 °C, average of at least three experiments; for MIC: Saccharomyces cerevisiae, read-out: MIC, Yeast, BY4741/ YEplac195
Text: as §4, §5, §6

E. coli JM101 = experiment: Minimal bactericidal concentration, E. coli; type: cell-based, Escherichia coli; conditions: overnight incubation, plating on LB, bacteriostatic if growth at 4 times the MIC; for MBC: Escherichia coli, JM101
Description: as §3

[4] = system: Yeast (S. cerevisiae strains); experiment: MIC, yeast (strain not specified); type: cell-based, Saccharomyces cerevisiae; conditions: for MIC: Saccharomyces cerevisiae, read-out: MIC Yeast
Description: as §6

E. coli = experiment: Checkerboard titration synergy, E. coli; type: cell-based, Escherichia coli; conditions: synergistic when FICI ≤0.5
Description: as §1, §2

[5] = yeast strain not specified (Tables 5 and 10)

In the case of c1cc2nc(c1)CNCCN(CCNCc1ccc3c(c1)OCO3)CCNC2 [Compound 5a, 2-(3,6,9-triaza-1(2,6)-pyridinacyclodecaphane-6-yl)-N-(benzo[d][1,3]dioxol-5-ylmethyl)ethan-1-amine], the “Synergy with Amphotericin B” value (BY4741/YEplac195) is reported as “positive results and +”, the “Synergy with Cycloheximide” value (BY4741/YEplac195) is reported as “Sinergy and positive results and +” and the “Synergy with Fluconazole” value (BY4741/YEplac195) is reported as “Sinergy and synergic and +”. The MBC (S. aureus BHI) was 70 µg/mL (≈ 183 µM), the MIC [1] was 35 µg/mL and the MIC [2] was 60 µg/mL. The MIC [3] was 60 µg/mL, the MBC (E. coli JM101) was 10 µg/mL (≈ 26.1 µM) and the MIC [4, 5] was 60 µg/mL (≈ 156 µM).
In the case of “N^1-(benzo[d][1,3]dioxol-5-ylmethyl)-N^3-(2-((2-((3-((benzo[d][1,3]dioxol-5-ylmethyl)amino)propyl)amino)ethyl)(2-((3-(((2,3-dihydrobenzofuran-6-yl)methyl)amino)propyl)amino)ethyl)amino)ethyl)propane-1,3-diamine [Compound 4a]”, the “Synergy with Amphotericin B” value (BY4741/YEplac195) is reported as “positive results and +”, the “Synergy with Cycloheximide” value (BY4741/YEplac195) is reported as “Sinergy and positive results and +” and the “Synergy with Fluconazole” value (BY4741/YEplac195) is reported as “Sinergy and synergic and +”. For the same compound, the “Minimal bactericidal concentration (MBC), S. aureus BHI” value (S. aureus BHI) was 8 ^a µg/mL, the “MIC, Bacteria, S. aureus BHI” value [1] was 4 µg/mL and the “MIC, Yeast, BY4741/ PDR5” value ([2]; 30 °C, Pdr5-overexpressing strain) was 150 µg/mL. The “MIC, Yeast, BY4741/ YEplac195” value [3] was 150 µg/mL, the “Minimal bactericidal concentration (MBC), E. coli JM101” value (E. coli JM101) was 10 ^a µg/mL and the “MIC Yeast” value [4, 5] was 150 µg/mL.
c1cc2nc(c1)CNCCN(CCNCc1ccc3c(c1)CCO3)CCNC2 [Compound 8a, 2-(3,6,9-triaza-1(2,6)-pyridinacyclodecaphane-6-yl)-N-((2,3-dihydrobenzofuran-5-yl)methyl)ethan-1-amine] gave an MBC (S. aureus BHI) of 400 µg/mL (≈ 1050 µM), an MIC [1] of 100 µg/mL and an MIC [2] of 400 µg/mL. The MIC [3] was 400 µg/mL, the MBC (E. coli JM101) was 60 µg/mL (≈ 157 µM) and the MIC [4, 5] was 400 µg/mL (≈ 1050 µM). The “Synergy with Ampicillin” value (E. coli) was “positive results and +”, the “Synergy with Ciprofloxacin” value (E. coli) was “-” and the “Synergy with Doxycycline” value (E. coli) was “positive results and +”. The “Synergy with Gentamicin” value (E. coli) was “positive results and +”.
Compound Oc1ccc(CNCCN2CCNCc3cccc(n3)CNCC2)cc1 [Compound 7a] has an MIC [1] of 135 µg/mL, an MIC [2] of 295 µg/mL and an MIC [3] of 295 µg/mL. The “Minimal bactericidal concentration (MBC), E. coli JM101” value (E. coli JM101) was “Bacteriostatic”, the MIC [4] was 295 µg/mL (≈ 830 µM) and the “Synergy with Ampicillin” value (E. coli) was “-”. For the same compound, the “Synergy with Ciprofloxacin” value (E. coli) was “-”, the “Synergy with Doxycycline” value (E. coli) was “-” and the “Synergy with Gentamicin” value (E. coli) was “positive results and +”.
With Oc1ccccc1CNCCN1CCNCc2cccc(n2)CNCC1 [Compound 6a] the “Synergy with Amphotericin B” value (BY4741/YEplac195) was “positive results and +”, the “Synergy with Cycloheximide” value (BY4741/YEplac195) was “positive results and +” and the “Synergy with Fluconazole” value (BY4741/YEplac195) was “-”. For the same compound, the MBC (S. aureus BHI) was 160 µg/mL (≈ 450 µM), the MIC [1] was 40 µg/mL and the MIC [2] was 45 µg/mL. For the same compound, the MIC [3] was 45 µg/mL, the MBC (E. coli JM101) was 10 µg/mL (≈ 28.1 µM) and the MIC [4, 5] was 45 µg/mL (≈ 127 µM). For the same compound, the “Synergy with Ampicillin” value (E. coli) was “no synergy and -”, the “Synergy with Ciprofloxacin” value (E. coli) was “no synergy and -” and the “Synergy with Doxycycline” value (E. coli) was “no synergy and -”. For the same compound, the “Synergy with Gentamicin” value (E. coli) was “no synergy and -”.

From paper PMC10675077, “Antimicrobial Properties of New Polyamines Conjugated with Oxygen-Containing Aromatic Functional Groups” (Molecules, 2023)
